The source of these data is ChEMBL document CHEMBL1128271, “Computer-aided molecular modeling, synthesis, and biological evaluation of 8-(benzyloxy)-2-phenylpyrazolo[4,3-c]quinoline as a novel benzodiazepine receptor agonist ligand” (J Med Chem, 1995).

This assay has as its target GABA-A receptor; anion channel. In words: Inhibition of [3H]-Ro- 15-1788 binding to GABA-A benzodiazepine receptor in rat brain membrane. The assay is classed as cell membranes.
With `O=c1c2cnc3c(OCc4ccccc4)cccc3c2[nH]n1-c1ccccc1`, the IC50 (in general, the concentration that inhibits the measured activity by half) was greater than 1 µM. To `COc1cccc2ncc3c(=O)n(-c4ccccc4)[nH]c3c12` belongs 0.00068 µM; to `O=c1c2cnc3cc(OCc4ccccc4)ccc3c2[nH]n1-c1ccccc1`, greater than 1 µM; to `O=c1c2cnc3cccc(OCc4ccccc4)c3c2[nH]n1-c1ccccc1`, greater than 1000 µM.

The molecule `O=c1c2cnc3ccc(OCc4ccccc4)cc3c2[nH]n1-c1ccc(Cl)cc1` yielded an IC50 of 0.0523 µM. To `O=c1c2cnc3cccc(O)c3c2[nH]n1-c1ccccc1` belongs 0.00074 µM; to `O=c1c2cnc3ccc(OCc4ccccc4)cc3c2[nH]n1-c1ccccc1`, 0.0037 µM.
